Measured values taken from patent US8420810B2, “Bicyclic heterocyclic compound” (Ono Pharmaceutical, Co., Ltd., priority 2007, dated 2013).

Key:
[1] = Stability test under acidic condition; type: physicochemical; details: ethanol solution / Pharmacopoeia first liquid 1 to 1, 37° C., 24 hours, HPLC
Procedure: A 1 mg/ml ethanol solution of an evaluation compound and the test liquid first liquid of the disintegration test of The Pharmacopoeia of Japan (to be referred to as Pharmacopoeia first liquid hereinafter) were mixed at a ratio of 1 to 1 (0.5 ml for each) and stirred at 37° C. for 24 hours. Amount of the evaluation compound at 0 minute or after 24 hours was determined by an HPLC apparatus. Survival rate (%) of the evaluation compound was calculated by the following formula. Survival rate of evaluation compound (%)=amount of evaluation compound after 24 hours of treatment with Pharmacopoeia first liquid/amount of evaluation compound just after treatment with Pharmacopoeia first liquid×100 <HPLC Conditions> • Apparatus: A 1200 series (manufactured by Agilent Technologies, Inc.), • Column: YMC-Pack C4, A-802, 150×4.6 mm I.D., S-5 μm, 120 A (manufactured by YMC), • Mobile phase: A: water, B: acetonitrile, A/B: 35/65, • Column temperature: room temperature, • Flow rate: 1.0 mL/min.

[2] = Light stability test; type: physicochemical; details: 2500 Lux (D65 lamp), 25° C., HPLC
Procedure: After weighing 5 mg of an evaluation compound, it was put into a test tube made of glass which was then sealed with a stop cock. Said test tube was stored at 25° C. for 11 days or 20 days under irradiation of 2500 Lux (a D65 lamp was used as the light source). The evaluation compound after 11 days or 20 days of irradiation was determined by an HPLC apparatus. Survival rate (%) of the evaluation compound was calculated by the following formula. Survival rate of evaluation compound (%)=amount of evaluation compound after 11 days or 20 days of irradiation (mg)/weighed value of evaluation compound (mg)×100 <HPLC Conditions> • Apparatus: A 1200 series (manufactured by Agilent Technologies, Inc.), • Column: YMC-Pack C4, A-802, 150×4.6 mm I.D., S-5 μm, 120 A (manufactured by YMC), • Mobile phase: A: water, B: acetonitrile, A/B: 35/65, • Column temperature: room temperature, • Flow rate: 1.0 mL/min.

[3] = test system: Male Wistar rats; test: Water aversive stress model in rats; type: in vivo, rat; details: 3 mg/kg, oral once 30 minutes before stress, 60 minutes after loading the water aversive stress
Procedure: Male Wistar rats of 7 weeks of age were used in the test. A platform of 8.5 cm in diameter and 11 cm in height was arranged in the center of a plastic container (30 cm in length, 45 cm in width, 37 cm in height), and water was filled therein to a depth of about 10 cm. Each rat was put on the platform, and the number of evacuations was counted 5, 30 and 60 minutes thereafter. To the vehicle group, 20% Wellsolve (registered trademark) was orally administered, and an evaluation compound having varied concentrations was orally administered to the evaluation compound group, once 30 minutes before loading the water aversive stress. The dose was set to be 5 ml/kg for both cases.

[4] = target: T1, human CRF receptor I (Homo sapiens, UniProt P34998); test: Receptor antagonistic activity (cyclic AMP assay); type: cell-based; details: accumulated cyclic AMP, human/rat CRF stimulation, cells expressing human CRF receptor I, 37° C. 15 minutes
T1 construct: expressed in transfected cells; host or cells: CHO-K1
T1 sequence (P34998 24-415): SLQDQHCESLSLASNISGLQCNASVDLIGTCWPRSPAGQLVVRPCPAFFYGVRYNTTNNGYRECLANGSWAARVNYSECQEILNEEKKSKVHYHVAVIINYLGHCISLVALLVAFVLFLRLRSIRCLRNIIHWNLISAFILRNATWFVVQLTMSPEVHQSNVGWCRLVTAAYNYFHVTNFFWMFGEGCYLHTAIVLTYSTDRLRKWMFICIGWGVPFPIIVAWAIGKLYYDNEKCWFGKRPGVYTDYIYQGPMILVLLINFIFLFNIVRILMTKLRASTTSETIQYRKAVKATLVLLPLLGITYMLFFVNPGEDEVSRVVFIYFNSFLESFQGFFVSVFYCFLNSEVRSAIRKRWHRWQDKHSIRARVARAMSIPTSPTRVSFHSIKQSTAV
Procedure: The forced expression cell strain of the human CRF receptor I was cultured at 37° C. under 5% carbon dioxide and 95% air by using a Ham's F-12 medium (F-12 nutrient mixture) containing 10% bovine fetal serum and 1% antibiotic substance-antifungal agent. On the previous day before the cyclic AMP was measured, the cells were inoculated into a 96-well plate in an amount of 1×10^4 cell/well. On the measurement day, the cells were washed twice with a Ham's F-12 medium, whereby a solution of Ham's F-12 medium/1 mM 3-isobutyl-1-methylxanthine (assay medium) (178 μL) was added to each well. After the incubation at 37° C. for 15 minutes, the solutions (2 μL) of evaluation compound in various concentrations were added thereto, or DMSO (2 μL) was added to a CRF group and a blank group. An assay medium (20 μL) containing 10 nM human/rat CRF was added to wells of an evaluation compound group and the CRF group. An assay medium (20 μL) containing 0.00001% acetic acid was added to the blank group. Each group was further incubated at 37° C. for 15 minutes. The supernatant was removed and ice-colded to stop the reaction. Note that the reactions of 2 wells were the same in all reactions. The measurement for accumulated cyclic AMP amount in cells was carried out by using a cyclic AMP Biotrak enzyme immunoassay system (manufactured by GE Healthcare). The accumulated cyclic AMP amounts were calculated by subtracting mean values of corresponding 2 wells in the blank group from that of 2 wells. The IC50 values were calculated with non-linear regression analysis by defining logarithm concentration of the evaluation compound as independent variable and an accumulated cyclic AMP amount as dependent variable.

[5] = target: T1, human CRF receptor I; test: Binding assay (125I-CRF, membrane fraction); details: 125I-CRF 0.25 nM, membrane fraction of CHO-K1 cells expressing human CRF receptor I, room temperature 2 hours
Procedure: The forced-expression cell strain of the human CRF receptor I (parent strain is CHO-K1 cell) was cultured until the cell was confluent and collected with a scraper. The collected cells were washed twice with PBS, and were suspended with an ice-colded binding assay buffer (Tris-HCl (50 mM, pH 7.0), EDTA (2 mM, pH 8.0), and MgCl2 (10 mM)). After fractured with a dounce-type homogenizer, the suspended cells were centrifuged at 10,000 g, and a membrane fraction was collected. The collected membrane fraction was resuspended with a little amount of the binding assay buffer, thereafter diluted with the binding assay buffer so as to have a concentration of 1 mg/mL. The obtained membrane fraction was used for a binding assay.
^125I-CRF was diluted with the binding assay buffer so as to have a concentration of 0.5 nM, whereby 50 μL of the diluted ^125I-CRF was added to a siliconized 1.5 mL tube. Next, evaluation compounds diluted at appropriate times, DMSO (for general binding), or 100 μM of CRF (for non-specific binding), was added to a […]. Finally, 50 μL of the membrane fraction was added thereto and the reaction was started (final concentration of ^125I-CRF was 0.25 nM). The tube was incubated at room temperature for 2 hours. After the reaction, the tube was centrifuged at 20,000 g in order to collect the membrane fraction. The supernatant was discarded, and the pellet was washed with an ice-colded PBS/0.01% TritonX-100. A membrane binding count was measured using a y counter. The specific binding count was obtained by subtracting the non-specific count from the measured count.

SMILES | residual ratio [1] | residual ratio after 20 days [2] | increase of the number of evacuations for the vehicle group [3] | IC50 [4] | IC50 [5]
CCC(CC)c1cc(C)n2nc(-c3ccc(OC)cc3C)n(C)c(=O)c12 [Example 8(1), 5-(1-ethylpropyl)-2-(4-methoxy-2-methylphenyl)-3,7-dimethylpyrrolo[2,1-f][1,2,4]triazin-4(3H)-one] | 90% | 93% |  |  | 
CCn1c(-c2ccc(SC)cc2Cl)nn2c(C)cc(C(C)C)c2c1=O [Example 14(2), 2-[2-chloro-4-(methylthio)phenyl]-3-ethyl-5-isopropyl-7-methylpyrrolo[2,1-f][1,2,4]triazin-4(3H)-one] |  |  | significantly inhibited | 2.1 nM | 4.5 nM
